Experimental data from publication PMC4276521 (Biochemical pharmacology, 2014).
Several values for one entry are separate records, joined by “and”; a condition that tells them apart may be missing. Equal values may be shown once. Where a name gives a salt, the structure may show the parent alone. Read-outs that look alike come from different tables or passages of the source.

Tests used:
DRD2 [1] = molecular target: T1, DRD2 (Homo sapiens, UniProt P14416)
DRD2 [2] = molecular target: T1, DRD2; remark: listed apart in the source
DRD2 [3] = molecular target: T1, DRD2; remark: listed apart in the source
DRD2 [4] = molecular target: T1, DRD2; experiment: cell-based
DRD2 [5] = molecular target: T1, DRD2; settings: HEK-AC5/D2 cells; percentage of dopamine's response, standard error in brackets

T1 sequence (P14416 whole entry, species assumed): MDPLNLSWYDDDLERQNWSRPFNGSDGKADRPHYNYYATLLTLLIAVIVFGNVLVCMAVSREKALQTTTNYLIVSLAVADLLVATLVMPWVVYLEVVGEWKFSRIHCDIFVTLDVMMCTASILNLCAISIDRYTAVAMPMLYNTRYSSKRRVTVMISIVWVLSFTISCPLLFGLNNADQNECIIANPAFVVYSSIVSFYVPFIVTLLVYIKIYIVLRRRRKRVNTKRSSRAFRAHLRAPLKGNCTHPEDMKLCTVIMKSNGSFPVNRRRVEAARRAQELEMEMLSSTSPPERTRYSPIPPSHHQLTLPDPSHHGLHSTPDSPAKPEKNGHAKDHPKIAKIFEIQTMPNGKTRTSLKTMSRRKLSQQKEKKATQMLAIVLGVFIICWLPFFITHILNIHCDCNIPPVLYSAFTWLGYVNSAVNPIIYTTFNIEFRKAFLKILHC

Structure (SMILES)	Gαi/o activation Max (DRD2 [1])	DMR (AUC) Max (DRD2 [2])	Gβγ activation Max (DRD2 [3])	EC50 (DRD2 [4]) [nM]	Gαi/o activation Max (DRD2 [1]; HEK-AC5/D2 cells, percentage of dopamine's response, standard error in brackets)	DMR (AUC) Max (DRD2 [2]; HEK-D2 cells, percentage of dopamine's response, standard error in brackets)	Sensitization Max (DRD2 [5])	Gβγ activation Max (DRD2 [3]; HEK-AC2/D2 cells, percentage of dopamine's response, standard error in brackets)
CCCN[C@H]1CCc2nc(N)sc2C1 [Pramipexole, pramipexole dihydrochloride]	87 (±4) %	98 (±2) %	98% and 98 (±5) %					
CCCN(CCc1cccs1)[C@H]1CCc2c(O)cccc2C1 [Rotigotine, rotigotine hydrochloride]	88 (±4) %		79% and 79 (±4) %	0.05				
CCCN(CCC)CCc1cccc2c1CC(=O)N2 [Ropinirole, ropinirole hydrochloride]					81 (±6) %	100 (±2) %	126 (±3) %	70 (±4) %
